Measured values as given in patent publication US9981959B2, “Thiazolyl and oxazolyl urea, thiourea, guanidine and cyanoguanidine compounds as TrkA kinase inhibitors” (Array BioPharma Inc., priority 2012, dated 2018).

Columns and labels:
Test in all cases: KinaseProfiler off-target kinase profiling
Format in all cases: biochemical
Conditions in all cases: 10 μM, ATP near Km
[1] = target: T1, CAMK4 (Homo sapiens, UniProt Q16566)
T1 construct: purchased Millipore (KinaseProfiler service)
In short: (§1)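 Run at ATP concentrations near each kinase's Km, the profiling used 10 μM compound in duplicate. Reported numbers are percent of control averaged across both runs.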

[2] = target: T2, FAK (Homo sapiens, UniProt Q05397)
T2 construct: purchased Millipore, Inc. (KinaseProfiler service)
In short: as §1

[3] = target: T3, IRAK4 (Homo sapiens, UniProt Q9NWZ3)
T3 construct: purchased Millipore, Inc. (KinaseProfiler service)
In short: as §1

[4] = target: T4, WNK2 (Homo sapiens, UniProt Q9Y3S1)
T4 construct: purchased Millipore, Inc. (KinaseProfiler service)
In short: as §1

[5] = target: T5, ERK2 (Homo sapiens, UniProt P28482)
T5 construct: purchased Millipore, Inc. (KinaseProfiler service)
In short: as §1

[6] = target: T6, DAPK3 (Homo sapiens, UniProt O43293)
T6 construct: purchased Millipore, Inc. (KinaseProfiler service)
In short: as §1

[7] = target: T7, CK1gamma2 (Homo sapiens, UniProt P78368)
T7 construct: purchased Millipore, Inc. (KinaseProfiler service)
In short: as §1

[8] = target: T8, ROCK-II (Homo sapiens, UniProt O75116)
T8 construct: purchased Millipore, Inc. (KinaseProfiler service)
In short: as §1

[9] = target: T9, DAPK2 (Homo sapiens, UniProt Q9UIK4)
T9 construct: purchased Millipore, Inc. (KinaseProfiler service)
In short: as §1

[10] = target: T10, MuSK (Homo sapiens, UniProt O15146)
T10 construct: purchased Millipore, Inc. (KinaseProfiler service)
In short: as §1

[11] = target: T11, HIPK1 (Homo sapiens, UniProt Q86Z02)
T11 construct: purchased Millipore, Inc. (KinaseProfiler service)
In short: as §1

[12] = target: T12, BrSK2 (Homo sapiens, UniProt Q8IWQ3)
T12 construct: purchased Millipore (KinaseProfiler service)
In short: as §1

[13] = target: T13, Hck (Homo sapiens, UniProt P08631)
T13 construct: purchased Millipore, Inc. (KinaseProfiler service)
In short: as §1

[14] = target: T14, PKD1 (Homo sapiens, UniProt Q15139)
T14 construct: purchased Millipore, Inc. (KinaseProfiler service)
In short: as §1

[15] = target: T15, MYLK (Homo sapiens, UniProt Q15746)
T15 construct: purchased Millipore, Inc. (KinaseProfiler service)
In short: as §1

[16] = target: T16, FGFR2 (Homo sapiens, UniProt P21802)
T16 construct: purchased Millipore, Inc. (KinaseProfiler service)
In short: as §1

[17] = target: T17, mTOR (Homo sapiens, UniProt P42345)
T17 construct: purchased Millipore, Inc. (KinaseProfiler service)
In short: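 The kinase was incubated with 10 μM compound and ATP near its Km. Two replicates were run, and their mean activity is given as percent of control.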

[18] = target: T18, NEK2 (Homo sapiens, UniProt P51955)
T18 construct: purchased Millipore, Inc. (KinaseProfiler service)
In short: as §1

[19] = target: T19, VRK2 (Homo sapiens, UniProt Q86Y07)
T19 construct: purchased Millipore, Inc. (KinaseProfiler service)
In short: as §1

[20] = target: T20, BLK_m (Mus musculus, UniProt P16277)
T20 construct: purchased Millipore (KinaseProfiler service)
In short: as §1

[21] = target: T21, PAK5 (Homo sapiens, UniProt Q9P286)
T21 construct: purchased Millipore, Inc. (KinaseProfiler service)
In short: as §1

[22] = target: T22, IGF-1R (Homo sapiens, UniProt P08069)
T22 construct: purchased Millipore, Inc. (KinaseProfiler service)
In short: as §1

[23] = target: T23, Plk1 (Homo sapiens, UniProt P53350)
T23 construct: purchased Millipore, Inc. (KinaseProfiler service)
In short: as §1

[24] = target: T24, MAPKAP-K3 (Homo sapiens, UniProt Q16644)
T24 construct: purchased Millipore, Inc. (KinaseProfiler service)
In short: as §1

[25] = target: T25, CLK2 (Homo sapiens, UniProt P49760)
T25 construct: purchased Millipore, Inc. (KinaseProfiler service)
In short: as §1

[26] = target: T26, eEF-2K (Homo sapiens, UniProt O00418)
T26 construct: purchased Millipore, Inc. (KinaseProfiler service)
In short: as §1

[27] = target: T27, DMPK (Homo sapiens, UniProt Q09013)
T27 construct: purchased Millipore, Inc. (KinaseProfiler service)
In short: as §1

[28] = target: T28, SGK2 (Homo sapiens, UniProt Q9HBY8)
T28 construct: purchased Millipore, Inc. (KinaseProfiler service)
In short: as §1

[29] = target: T29, DRAK1 (Homo sapiens, UniProt Q9UEE5)
T29 construct: purchased Millipore, Inc. (KinaseProfiler service)
In short: as §1

[30] = target: T30, TLK2 (Homo sapiens, UniProt Q86UE8)
T30 construct: purchased Millipore, Inc. (KinaseProfiler service)
In short: as §1

[31] = target: T31, FGFR3 (Homo sapiens, UniProt P22607)
T31 construct: purchased Millipore, Inc. (KinaseProfiler service)
In short: as §1

[32] = target: T32, GRK5 (Homo sapiens, UniProt P34947)
T32 construct: purchased Millipore, Inc. (KinaseProfiler service)
In short: as §1

[33] = target: T33, PKCdelta (Homo sapiens, UniProt Q05655)
T33 construct: purchased Millipore, Inc. (KinaseProfiler service)
In short: as §1

[34] = target: T34, PAK6 (Homo sapiens, UniProt Q9NQU5)
T34 construct: purchased Millipore, Inc. (KinaseProfiler service)
In short: as §1

[35] = target: T35, Abl-P (Homo sapiens, UniProt P00519)
T35 construct: purchased Millipore (KinaseProfiler service)
In short: as §1

[36] = target: T36, PKCbetaI (Homo sapiens, UniProt P05771)
T36 construct: purchased Millipore, Inc. (KinaseProfiler service)
In short: as §1

[37] = target: T37, Bmx (Homo sapiens, UniProt P51813)
T37 construct: purchased Millipore (KinaseProfiler service)
In short: as §1

[38] = target: T38, Flt4 (Homo sapiens, UniProt P35916)
T38 construct: purchased Millipore, Inc. (KinaseProfiler service)
In short: as §1

[39] = target: T39, ALK4 (Homo sapiens, UniProt P36896)
T39 construct: purchased Millipore (KinaseProfiler service)
In short: as §1

[40] = target: T40, MAP4K2 (Homo sapiens, UniProt Q12851)
T40 construct: purchased Millipore, Inc. (KinaseProfiler service)
In short: as §1

[41] = target: T41, Fyn (Homo sapiens, UniProt P06241)
T41 construct: purchased Millipore, Inc. (KinaseProfiler service)
In short: as §1

T27 sequence (Q09013 whole entry): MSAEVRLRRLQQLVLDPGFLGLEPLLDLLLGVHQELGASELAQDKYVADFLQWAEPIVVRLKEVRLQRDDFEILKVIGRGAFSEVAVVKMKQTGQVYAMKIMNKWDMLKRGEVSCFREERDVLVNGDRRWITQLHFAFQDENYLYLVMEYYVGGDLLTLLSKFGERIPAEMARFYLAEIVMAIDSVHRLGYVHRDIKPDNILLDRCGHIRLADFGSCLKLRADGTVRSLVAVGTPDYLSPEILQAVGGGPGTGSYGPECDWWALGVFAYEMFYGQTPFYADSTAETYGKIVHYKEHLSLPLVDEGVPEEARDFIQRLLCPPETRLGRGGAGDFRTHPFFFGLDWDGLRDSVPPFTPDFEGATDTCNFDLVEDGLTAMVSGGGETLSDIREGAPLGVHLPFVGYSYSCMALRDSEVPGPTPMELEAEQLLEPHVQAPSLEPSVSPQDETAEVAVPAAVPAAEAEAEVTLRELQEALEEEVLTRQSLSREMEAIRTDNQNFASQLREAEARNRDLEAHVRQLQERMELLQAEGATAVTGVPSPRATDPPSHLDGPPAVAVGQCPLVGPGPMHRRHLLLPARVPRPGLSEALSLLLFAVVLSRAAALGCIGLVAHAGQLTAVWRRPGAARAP
T20 sequence (P16277 whole entry): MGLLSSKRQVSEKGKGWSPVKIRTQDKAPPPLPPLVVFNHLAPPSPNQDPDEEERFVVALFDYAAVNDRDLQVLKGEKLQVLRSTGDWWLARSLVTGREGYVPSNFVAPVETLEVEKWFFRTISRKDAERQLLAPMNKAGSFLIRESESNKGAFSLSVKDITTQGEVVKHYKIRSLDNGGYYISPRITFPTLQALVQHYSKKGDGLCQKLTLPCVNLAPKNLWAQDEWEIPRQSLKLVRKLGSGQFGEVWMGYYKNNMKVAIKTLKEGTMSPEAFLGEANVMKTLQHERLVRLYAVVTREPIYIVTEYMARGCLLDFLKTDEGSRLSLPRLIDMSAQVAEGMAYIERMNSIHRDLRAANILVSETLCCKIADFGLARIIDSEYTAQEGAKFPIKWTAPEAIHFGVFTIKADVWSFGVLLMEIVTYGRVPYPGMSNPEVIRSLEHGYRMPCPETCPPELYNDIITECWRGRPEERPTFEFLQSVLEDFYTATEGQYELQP
T9 sequence (Q9UIK4 whole entry): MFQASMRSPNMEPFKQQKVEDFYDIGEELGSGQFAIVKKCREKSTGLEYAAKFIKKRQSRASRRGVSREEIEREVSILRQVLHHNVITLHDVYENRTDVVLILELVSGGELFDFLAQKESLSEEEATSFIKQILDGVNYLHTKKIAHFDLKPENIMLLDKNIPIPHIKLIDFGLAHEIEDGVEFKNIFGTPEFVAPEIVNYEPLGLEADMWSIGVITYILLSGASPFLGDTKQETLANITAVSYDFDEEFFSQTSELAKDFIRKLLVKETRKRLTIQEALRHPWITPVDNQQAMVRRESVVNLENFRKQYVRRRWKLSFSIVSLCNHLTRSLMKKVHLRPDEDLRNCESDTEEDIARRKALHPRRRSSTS
T31 sequence (P22607 23-806): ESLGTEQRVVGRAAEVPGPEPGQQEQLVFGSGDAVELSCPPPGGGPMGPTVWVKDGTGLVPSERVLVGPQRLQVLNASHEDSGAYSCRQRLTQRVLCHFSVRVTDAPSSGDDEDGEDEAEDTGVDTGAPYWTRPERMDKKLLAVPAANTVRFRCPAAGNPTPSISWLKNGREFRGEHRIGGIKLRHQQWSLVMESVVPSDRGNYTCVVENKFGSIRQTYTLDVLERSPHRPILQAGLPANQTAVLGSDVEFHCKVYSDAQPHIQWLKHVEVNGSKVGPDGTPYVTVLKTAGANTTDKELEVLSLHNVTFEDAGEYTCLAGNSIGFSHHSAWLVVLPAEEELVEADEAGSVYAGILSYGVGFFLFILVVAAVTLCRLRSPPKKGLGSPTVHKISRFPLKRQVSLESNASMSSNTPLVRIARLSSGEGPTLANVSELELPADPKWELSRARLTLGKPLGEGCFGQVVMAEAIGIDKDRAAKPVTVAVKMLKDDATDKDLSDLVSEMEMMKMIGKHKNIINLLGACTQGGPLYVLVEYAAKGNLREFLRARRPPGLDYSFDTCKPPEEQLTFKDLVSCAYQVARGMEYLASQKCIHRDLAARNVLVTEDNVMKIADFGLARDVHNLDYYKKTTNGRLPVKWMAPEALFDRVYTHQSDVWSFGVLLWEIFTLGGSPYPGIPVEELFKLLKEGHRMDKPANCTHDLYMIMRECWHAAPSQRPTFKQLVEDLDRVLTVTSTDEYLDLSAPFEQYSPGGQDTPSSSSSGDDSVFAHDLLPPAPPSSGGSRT
T13 sequence (P08631 whole entry): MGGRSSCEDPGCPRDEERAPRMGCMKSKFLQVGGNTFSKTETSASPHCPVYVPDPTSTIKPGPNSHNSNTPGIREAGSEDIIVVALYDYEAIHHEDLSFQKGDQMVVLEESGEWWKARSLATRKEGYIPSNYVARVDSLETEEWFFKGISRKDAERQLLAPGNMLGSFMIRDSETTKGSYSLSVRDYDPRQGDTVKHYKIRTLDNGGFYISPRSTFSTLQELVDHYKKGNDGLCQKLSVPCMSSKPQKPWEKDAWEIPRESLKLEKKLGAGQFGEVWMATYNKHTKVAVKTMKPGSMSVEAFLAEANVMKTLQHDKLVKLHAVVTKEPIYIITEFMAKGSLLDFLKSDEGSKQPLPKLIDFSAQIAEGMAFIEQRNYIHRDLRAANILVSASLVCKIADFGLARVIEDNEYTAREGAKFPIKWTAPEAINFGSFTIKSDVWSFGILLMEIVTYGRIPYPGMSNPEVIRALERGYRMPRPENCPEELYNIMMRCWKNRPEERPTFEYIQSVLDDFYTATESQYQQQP
T10 sequence (O15146 24-869): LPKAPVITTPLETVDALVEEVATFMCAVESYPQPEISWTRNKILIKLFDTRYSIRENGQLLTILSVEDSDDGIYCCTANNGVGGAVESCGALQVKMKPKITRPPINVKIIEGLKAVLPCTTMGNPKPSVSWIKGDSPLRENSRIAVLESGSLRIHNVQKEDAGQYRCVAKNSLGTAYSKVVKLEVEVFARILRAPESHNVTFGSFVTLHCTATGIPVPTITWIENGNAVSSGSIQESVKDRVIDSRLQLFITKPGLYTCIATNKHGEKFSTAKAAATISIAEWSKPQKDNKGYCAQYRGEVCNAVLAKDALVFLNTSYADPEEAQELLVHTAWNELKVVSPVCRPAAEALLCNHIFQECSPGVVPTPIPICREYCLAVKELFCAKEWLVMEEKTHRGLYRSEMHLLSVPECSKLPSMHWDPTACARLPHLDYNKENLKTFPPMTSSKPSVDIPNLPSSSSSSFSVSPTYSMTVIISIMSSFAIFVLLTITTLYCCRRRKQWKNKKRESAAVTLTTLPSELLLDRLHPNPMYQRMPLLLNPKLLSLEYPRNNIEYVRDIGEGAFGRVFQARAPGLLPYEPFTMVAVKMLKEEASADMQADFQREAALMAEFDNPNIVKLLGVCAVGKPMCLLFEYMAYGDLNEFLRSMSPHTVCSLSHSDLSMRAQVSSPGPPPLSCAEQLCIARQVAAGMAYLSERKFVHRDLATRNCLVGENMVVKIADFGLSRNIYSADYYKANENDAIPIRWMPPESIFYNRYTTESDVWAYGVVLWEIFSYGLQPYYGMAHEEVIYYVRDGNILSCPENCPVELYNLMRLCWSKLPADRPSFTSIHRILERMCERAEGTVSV
T34 sequence (Q9NQU5 whole entry): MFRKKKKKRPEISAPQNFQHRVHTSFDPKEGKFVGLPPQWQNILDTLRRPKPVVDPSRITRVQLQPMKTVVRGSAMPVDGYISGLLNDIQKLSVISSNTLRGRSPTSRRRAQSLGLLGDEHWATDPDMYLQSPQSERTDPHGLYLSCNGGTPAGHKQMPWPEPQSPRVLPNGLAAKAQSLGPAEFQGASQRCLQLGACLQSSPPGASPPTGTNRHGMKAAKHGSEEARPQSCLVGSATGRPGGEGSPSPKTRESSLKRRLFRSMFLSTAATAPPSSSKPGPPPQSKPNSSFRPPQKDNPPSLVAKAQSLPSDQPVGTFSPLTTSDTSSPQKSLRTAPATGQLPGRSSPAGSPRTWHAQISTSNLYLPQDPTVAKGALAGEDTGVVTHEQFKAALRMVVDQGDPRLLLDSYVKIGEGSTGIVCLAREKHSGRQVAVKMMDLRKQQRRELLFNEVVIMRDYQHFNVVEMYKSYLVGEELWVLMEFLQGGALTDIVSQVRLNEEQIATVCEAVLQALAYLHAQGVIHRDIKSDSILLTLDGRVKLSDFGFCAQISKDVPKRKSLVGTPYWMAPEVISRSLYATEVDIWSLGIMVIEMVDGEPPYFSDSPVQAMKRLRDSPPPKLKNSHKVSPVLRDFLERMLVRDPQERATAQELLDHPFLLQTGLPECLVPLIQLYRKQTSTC
T19 sequence (Q86Y07 whole entry): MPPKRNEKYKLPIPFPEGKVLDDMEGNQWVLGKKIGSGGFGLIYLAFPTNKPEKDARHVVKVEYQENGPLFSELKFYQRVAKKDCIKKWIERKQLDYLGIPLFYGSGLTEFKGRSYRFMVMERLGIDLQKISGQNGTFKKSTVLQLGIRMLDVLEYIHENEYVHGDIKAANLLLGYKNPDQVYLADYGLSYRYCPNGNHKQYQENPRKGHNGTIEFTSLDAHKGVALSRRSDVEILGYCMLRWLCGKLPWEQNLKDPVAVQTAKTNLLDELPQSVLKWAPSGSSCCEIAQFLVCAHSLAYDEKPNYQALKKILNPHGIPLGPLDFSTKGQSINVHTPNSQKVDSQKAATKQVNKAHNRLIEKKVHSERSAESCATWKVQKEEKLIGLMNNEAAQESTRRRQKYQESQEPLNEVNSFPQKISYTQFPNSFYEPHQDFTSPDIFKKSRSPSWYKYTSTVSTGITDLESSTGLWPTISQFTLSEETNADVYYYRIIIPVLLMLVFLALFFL

Compound: Cc1c(-c2cnn(C)c2)nn(-c2ccccc2)c1NC(=O)Nc1sc(C(F)(F)F)nc1-c1ccccc1 [Example 2, 1-(1′,4-dimethyl-1-phenyl-1H,1′H-[3,4′-bipyrazol]-5-yl)-3-(4-phenyl-2-(trifluoromethyl)thiazol-5-yl)urea]
- Avg POC [1]: 132.5 POC
- Avg POC [2]: 106 POC
- Avg POC [3]: 112 POC
- Avg POC [4]: 115 POC
- Avg POC [5]: 135 POC
- Avg POC [6]: 120 POC
- Avg POC [7]: 110 POC
- Avg POC [8]: 115.5 POC
- Avg POC [9]: 103.5 POC
- Avg POC [10]: 88 POC
- Avg POC [11]: 108 POC
- Avg POC [12]: 116.5 POC
- Avg POC [13]: 134.5 POC
- Avg POC [14]: 97.5 POC
- Avg POC [15]: 99 POC
- Avg POC [16]: 116.5 POC
- Avg POC [17]: 92.5 POC
- Avg POC [18]: 122.5 POC
- Avg POC [19]: 91.5 POC
- Avg POC [20]: 112 POC
- Avg POC [21]: 131.5 POC
- Avg POC [22]: 82.5 POC
- Avg POC [23]: 103.5 POC
- Avg POC [24]: 116 POC
- Avg POC [25]: 118 POC
- Avg POC [26]: 151.5 POC
- Avg POC [27]: 107.5 POC
- Avg POC [28]: 144.5 POC
- Avg POC [29]: 119 POC
- Avg POC [30]: 98 POC
- Avg POC [31]: 117 POC
- Avg POC [32]: 82.5 POC
- Avg POC [33]: 97 POC
- Avg POC [34]: 135 POC
- Avg POC [35]: 148 POC
- Avg POC [36]: 102 POC
- Avg POC [37]: 129.5 POC
- Avg POC [38]: 107 POC
- Avg POC [39]: 107 POC
- Avg POC [40]: 121.5 POC
- Avg POC [41]: 105.5 POC
